# Assay results as given in patent US20100298141A1, “SUBSTITUTED PYRIDINE N-OXIDE HERBICIDES” (E. I. DU PONT DE NEMOURS AND COMPANY, priority 2007, published 2010).
# What was measured:
# wild oat = experiment: Test C pre-/postemergence test; assay type: in vivo, Avena fatua
# Summary of the method: (§1)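 Test chemicals were formulated with surfactant in a non-phytotoxic solvent and sprayed both on freshly planted seeds (preemergence) and on 1- to 4-leaf plants of 2–18 cm (postemergence). Flooded-paddy pots received compound directly into 3 cm of standing water, maintained for the test.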
# yellow nutsedge = experiment: Test C pre-/postemergence test; assay type: in vivo, Cyperus esculentus
# Summary of the method: as §1
# eastern black nightshade = experiment: Test C pre-/postemergence test; assay type: in vivo, Solanum ptycanthum
# Summary of the method: as §1
# kochia = experiment: Test C pre-/postemergence test; assay type: in vivo, Kochia scoparia
# Summary of the method: as §1
# morningglory [1] = experiment: Test C pre-/postemergence test; assay type: in vivo, Ipomoea coccinea
# Summary of the method: as §1
# [2] = system: common (oilseed) sunflower; experiment: Test C pre-/postemergence test; assay type: in vivo, Helianthus annuus
# Summary of the method: as §1
# corn [3] = experiment: Test C pre-/postemergence test; assay type: in vivo, Zea mays
# Summary of the method: as §1
# wheat = experiment: Test C pre-/postemergence test; assay type: in vivo, Triticum aestivum
# Summary of the method: as §1
# morningglory [4] = experiment: Test A pre-/postemergence greenhouse test; assay type: in vivo, Ipomoea spp.; conditions: for Plant response rating, Morningglory: 0 to 100 scale where 0 is no effect and 100 is complete control; for Morningglory plant response rating: 0 to 100 scale
# Summary of the method: (§2)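 Each test compound, dissolved in a non-phytotoxic solvent mixture with surfactant, was sprayed directly onto seeded soil (loam/sand blend) and, at the same moment, onto seedlings carrying one to two leaves. Around ten greenhouse days later, plants were rated visually for injury relative to untreated controls.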
# Italian ryegrass = experiment: Test C pre-/postemergence test; assay type: in vivo, Lolium multiflorum
# Summary of the method: as §1
# bermudagrass = experiment: Test C pre-/postemergence test; assay type: in vivo, Cynodon dactylon
# Summary of the method: as §1
# redroot pigweed = experiment: Test A pre-/postemergence greenhouse test; assay type: in vivo, Amaranthus retroflexus; conditions: for Plant response rating, Pigweed: 0 to 100 scale where 0 is no effect and 100 is complete control; for Pigweed plant response rating: 0 to 100 scale
# Summary of the method: as §2
# corn [5] = experiment: Test A pre-/postemergence greenhouse test; assay type: in vivo, Zea mays; conditions: for Plant response rating, Corn: 0 to 100 scale where 0 is no effect and 100 is complete control; for Corn plant response rating: 0 to 100 scale
# Summary of the method: as §2
# cocklebur = experiment: Test C pre-/postemergence test; assay type: in vivo, Xanthium strumarium
# Summary of the method: as §1
# rice = experiment: Test C flooded paddy test; assay type: in vivo, Oryza sativa; conditions: Flood, scale 0 to 100, 0 no effect, 100 complete control, 13 to 15 days
# Summary of the method: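 Compound was added to standing water 3 cm above soil, flood maintained, and plants held in a greenhouse before visual scoring against controls at 13 to 15 days.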
# giant foxtail = experiment: Test C pre-/postemergence test; assay type: in vivo, Setaria faberii
# Summary of the method: as §1
# johnsongrass = experiment: Test C pre-/postemergence test; assay type: in vivo, Sorghum halepense
# Summary of the method: as §1
# [6] = 62 g ai/ha, Preemergence, scale 0 to 100
# [7] = 125 g ai/ha, preemergence, scale 0 (no effect) to 100 (complete control)
# [8] = Preemergence, 31 g ai/ha, scale 0 to 100 (0 no effect, 100 complete control)
# [9] = preemergence, 250 g ai/ha, scale 0 (no effect) to 100 (complete control)
# [10] = Postemergence, 500 g ai/ha, 0 is no effect, 100 is complete control
# [11] = Preemergence, 125 g ai/ha, 0 no effect, 100 complete control
structure (smiles),measurement,setting,value
CC(c1c(C(F)(F)F)nn(CC(F)(F)F)c1Cl)[S+]([O-])c1cccc[n+]1[O-] (centres unmarked) [Compound 46],"Oat, Wild plant response rating",wild oat; [6],20
same,"Oat, Wild plant response rating",wild oat; [7],20
same,"Plant response rating, Oat, Wild",wild oat; [8],0
same,"Oat, Wild plant response rating",wild oat; [9],50
same,"Nutsedge, Yellow plant response rating",yellow nutsedge; [6],60
same,"Nutsedge, Yellow plant response rating",yellow nutsedge; [7],65
same,"Plant response rating, Nutsedge, Yellow",yellow nutsedge; [8],60
same,"Nutsedge, Yellow plant response rating",yellow nutsedge; [9],100
same,Nightshade plant response rating,eastern black nightshade; [6],100
same,Nightshade plant response rating,eastern black nightshade; [7],100
same,"Plant response rating, Nightshade",eastern black nightshade; [8],80
same,Kochia plant response rating,kochia; [6],50
same,Kochia plant response rating,kochia; [7],100
same,"Plant response rating, Kochia",kochia; [8],50
same,Kochia plant response rating,kochia; [9],100
same,Morningglory plant response rating,morningglory [1]; [6],100
same,Morningglory plant response rating,morningglory [1]; [7],100
same,"Plant response rating, Morningglory",morningglory [1]; [8],100
same,Morningglory plant response rating,morningglory [1]; [9],100
same,Sunflower plant response rating,[2]; [6],0
same,Sunflower plant response rating,[2]; [7],0
same,"Plant response rating, Sunflower",[2]; [8],0
same,Sunflower plant response rating,[2]; [9],40
same,Corn plant response rating,corn [3]; [6],0
same,Corn plant response rating,corn [3]; [7],0
same,"Plant response rating, Corn",corn [3]; [8],0
same,Corn plant response rating,corn [3]; [9],55
same,Wheat plant response rating,wheat; [6],100
same,Wheat plant response rating,wheat; [7],100
same,"Plant response rating, Wheat",wheat; [8],100
same,Wheat plant response rating,wheat; [9],100
same,"Plant response rating, Morningglory","morningglory [4]; Postemergence, 125 g ai/ha",0
same,Morningglory plant response rating,morningglory [4]; [10],60
same,Morningglory plant response rating,morningglory [4]; [11],30
same,"Plant response rating, Morningglory","morningglory [4]; Preemergence, 500 g ai/ha",90
same,"Ryegrass, Italian plant response rating",Italian ryegrass; [6],55
same,"Ryegrass, Italian plant response rating",Italian ryegrass; [7],80
same,"Plant response rating, Ryegrass, Italian",Italian ryegrass; [8],0
same,"Ryegrass, Italian plant response rating",Italian ryegrass; [9],100
same,Bermudagrass plant response rating,"bermudagrass; 62 g ai/ha, Preemergence, scale 0 to 100 (0 no effect, 100 complete control)",100
same,Bermudagrass plant response rating,bermudagrass; [7],100
same,"Plant response rating, Bermudagrass",bermudagrass; [8],100
same,Bermudagrass plant response rating,bermudagrass; [9],100
same,"Plant response rating, Pigweed","redroot pigweed; Postemergence, 125 g ai/ha",40
same,Pigweed plant response rating,redroot pigweed; [10],50
same,Pigweed plant response rating,redroot pigweed; [11],10
same,"Plant response rating, Pigweed","redroot pigweed; Preemergence, 500 g ai/ha",100
same,"Plant response rating, Corn","corn [5]; Postemergence, 125 g ai/ha",0
same,Corn plant response rating,corn [5]; [10],0
same,Corn plant response rating,corn [5]; [11],0
same,"Plant response rating, Corn","corn [5]; Preemergence, 500 g ai/ha",0
same,Cocklebur plant response rating,cocklebur; [6],0
same,Cocklebur plant response rating,cocklebur; [7],0
same,"Plant response rating, Cocklebur",cocklebur; [8],0
same,Cocklebur plant response rating,cocklebur; [9],10
same,"Plant response rating, Rice",rice; 62 g ai/ha,10
same,"Plant response rating, Rice",rice; 250 g ai/ha,55
same,"Foxtail, Giant plant response rating",giant foxtail; [6],100
same,"Foxtail, Giant plant response rating",giant foxtail; [7],100
same,"Plant response rating, Foxtail, Giant",giant foxtail; [8],85
same,"Foxtail, Giant plant response rating",giant foxtail; [9],100
same,Johnsongrass plant response rating,johnsongrass; [6],80
same,Johnsongrass plant response rating,johnsongrass; [7],90
same,"Plant response rating, Johnsongrass",johnsongrass; [8],40
same,Johnsongrass plant response rating,johnsongrass; [9],100
